One block for each compound: values may come before it. The source made the active and inactive calls.
Legend:
[1] = Counterscreen for IDE inhibitors: Luminescence-based cell-based high throughput dose response assay to identify compounds that are cytotoxic to HEK cells. [Related pubchem assays: 434962 (Primary screen (IDE inhibitors in singlicate)), 449730 (Counterscreen (Cytotoxicity in triplicate)), 435028 (Confirmation (IDE inhibitors in triplicate)) …; type: functional; settings: HEK293
Insulin-degrading enzyme = biological target: T1, Insulin-degrading enzyme (Homo sapiens, UniProt P14735); test: Dose Response: Fluorescence polarization-based cell-based high throughput dose response assay for inhibitors of insulin-degrading enzyme (IDE). [Related pubchem assays: 434962 (Primary screen (IDE inhibitors in singlicate)), 449730 (Counterscreen (Cytotoxicity in triplicate)), 435028 (Confirmation (IDE inhibitors in triplicate)), 434984 (Summary …; type: functional
T1 sequence (P14735 whole entry): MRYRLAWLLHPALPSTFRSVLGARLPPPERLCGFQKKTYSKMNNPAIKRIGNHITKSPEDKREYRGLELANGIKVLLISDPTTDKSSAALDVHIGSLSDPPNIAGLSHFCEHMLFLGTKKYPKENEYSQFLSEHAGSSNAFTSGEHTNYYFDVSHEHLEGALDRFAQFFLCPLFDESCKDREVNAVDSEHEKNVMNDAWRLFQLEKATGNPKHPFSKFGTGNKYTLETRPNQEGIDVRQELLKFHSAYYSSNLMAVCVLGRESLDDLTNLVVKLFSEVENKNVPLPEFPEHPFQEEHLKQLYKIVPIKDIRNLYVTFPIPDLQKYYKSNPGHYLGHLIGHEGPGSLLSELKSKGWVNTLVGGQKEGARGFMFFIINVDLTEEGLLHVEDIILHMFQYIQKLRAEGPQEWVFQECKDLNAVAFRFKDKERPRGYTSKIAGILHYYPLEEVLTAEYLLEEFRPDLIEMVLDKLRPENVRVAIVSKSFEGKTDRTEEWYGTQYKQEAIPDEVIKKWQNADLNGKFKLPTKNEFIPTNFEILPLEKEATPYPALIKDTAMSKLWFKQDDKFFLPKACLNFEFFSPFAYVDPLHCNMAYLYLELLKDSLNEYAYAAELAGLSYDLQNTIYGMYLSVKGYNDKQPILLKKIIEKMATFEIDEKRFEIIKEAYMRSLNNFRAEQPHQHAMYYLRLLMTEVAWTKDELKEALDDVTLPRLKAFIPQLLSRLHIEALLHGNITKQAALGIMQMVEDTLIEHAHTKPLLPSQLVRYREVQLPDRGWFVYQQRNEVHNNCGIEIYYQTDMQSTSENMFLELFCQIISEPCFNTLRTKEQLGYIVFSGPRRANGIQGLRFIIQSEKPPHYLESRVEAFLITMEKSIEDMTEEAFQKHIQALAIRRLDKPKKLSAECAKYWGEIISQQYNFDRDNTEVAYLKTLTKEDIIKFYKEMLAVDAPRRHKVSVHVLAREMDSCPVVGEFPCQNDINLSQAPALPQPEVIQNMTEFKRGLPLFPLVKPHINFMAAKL

[2] = viability of HCT116 lacking mutant beta-catenin – cell-based, human colon tumor, dose response (AID 1045); type: functional;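 further: HCT116 colon tumor cells with beta catenin knocked out; cells exposed to compound for 60 hours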
[3] = viability of PTEN-deleted HCT116 cells – cell-based, HCT116 PTEN knockout, dose response (AID 1047); type: functional;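 further: HCT116 colon tumor cells with PTEN knocked out; cells exposed to compound for 60 hours before readout; potency for loss of cell viability measured by luminescence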
Cytochrome P450 2D6 = Cytochrome P450 2D6 (Homo sapiens, UniProt P10635); test: qHTS Assay for Inhibitors and Substrates of Cytochrome P450 2D6. [Related pubchem assays: 410 ]; type: ADME; settings: read-out: Potency
Cytochrome P450 2D6, sequence (P10635 whole entry): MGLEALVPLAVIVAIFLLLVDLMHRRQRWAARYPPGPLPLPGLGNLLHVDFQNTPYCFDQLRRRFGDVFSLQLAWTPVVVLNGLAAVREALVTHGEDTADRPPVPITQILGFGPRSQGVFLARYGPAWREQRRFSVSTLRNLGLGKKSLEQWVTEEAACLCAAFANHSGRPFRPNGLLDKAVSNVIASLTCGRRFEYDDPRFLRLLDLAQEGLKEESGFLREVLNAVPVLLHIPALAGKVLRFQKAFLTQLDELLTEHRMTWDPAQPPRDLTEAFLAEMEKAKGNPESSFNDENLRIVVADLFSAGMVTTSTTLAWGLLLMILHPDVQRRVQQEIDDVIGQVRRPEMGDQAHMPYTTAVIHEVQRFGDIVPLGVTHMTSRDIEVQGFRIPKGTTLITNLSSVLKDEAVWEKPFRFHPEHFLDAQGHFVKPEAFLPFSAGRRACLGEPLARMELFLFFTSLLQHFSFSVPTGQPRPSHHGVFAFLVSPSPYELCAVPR

[4] = biological target: Melanin-concentrating hormone receptor 1 (Homo sapiens, UniProt Q99705); test: Fluorescence-based counterscreen for antagonists of the G-protein coupled receptor 7 (GPR7): cell-based high throughput dose response assay to identify antagonists of the melanin-concentrating hormone receptor 1 (MCHR1).; type: functional
Melanin-concentrating hormone receptor 1, sequence (Q99705 whole entry): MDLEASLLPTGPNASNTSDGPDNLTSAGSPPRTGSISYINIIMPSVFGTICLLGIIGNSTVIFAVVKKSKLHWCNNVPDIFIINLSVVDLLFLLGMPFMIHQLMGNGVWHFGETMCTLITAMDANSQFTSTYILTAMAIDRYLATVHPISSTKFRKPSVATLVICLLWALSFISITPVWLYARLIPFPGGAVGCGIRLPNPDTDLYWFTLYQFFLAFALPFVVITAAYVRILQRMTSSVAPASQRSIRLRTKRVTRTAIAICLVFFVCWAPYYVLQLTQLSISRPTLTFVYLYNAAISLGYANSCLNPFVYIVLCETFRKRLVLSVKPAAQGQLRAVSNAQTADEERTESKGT

[5] = biological target: T2, Neuropeptides B/W receptor type 1 (Homo sapiens, UniProt P48145); test: Fluorescence-based dose response cell-based high throughput screening assay to identify antagonists of the G-protein coupled receptor 7 (GPR7). [Related pubchem assays: 1952 (Screening assay (GPR7 antagonists).), 1880 (Summary AID.)]; type: functional
T2 sequence (P48145 whole entry): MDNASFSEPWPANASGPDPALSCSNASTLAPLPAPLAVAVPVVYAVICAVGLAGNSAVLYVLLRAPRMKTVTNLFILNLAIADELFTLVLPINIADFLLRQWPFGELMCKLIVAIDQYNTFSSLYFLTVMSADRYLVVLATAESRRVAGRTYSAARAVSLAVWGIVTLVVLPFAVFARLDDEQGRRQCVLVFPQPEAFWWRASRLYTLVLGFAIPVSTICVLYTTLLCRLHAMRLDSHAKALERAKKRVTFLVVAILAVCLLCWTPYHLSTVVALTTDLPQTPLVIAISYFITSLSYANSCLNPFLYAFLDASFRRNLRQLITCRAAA

Protein skinhead-1 = biological target: T3, Protein skinhead-1 (Caenorhabditis elegans, UniProt P34707); type: functional
T3 sequence (P34707 whole entry): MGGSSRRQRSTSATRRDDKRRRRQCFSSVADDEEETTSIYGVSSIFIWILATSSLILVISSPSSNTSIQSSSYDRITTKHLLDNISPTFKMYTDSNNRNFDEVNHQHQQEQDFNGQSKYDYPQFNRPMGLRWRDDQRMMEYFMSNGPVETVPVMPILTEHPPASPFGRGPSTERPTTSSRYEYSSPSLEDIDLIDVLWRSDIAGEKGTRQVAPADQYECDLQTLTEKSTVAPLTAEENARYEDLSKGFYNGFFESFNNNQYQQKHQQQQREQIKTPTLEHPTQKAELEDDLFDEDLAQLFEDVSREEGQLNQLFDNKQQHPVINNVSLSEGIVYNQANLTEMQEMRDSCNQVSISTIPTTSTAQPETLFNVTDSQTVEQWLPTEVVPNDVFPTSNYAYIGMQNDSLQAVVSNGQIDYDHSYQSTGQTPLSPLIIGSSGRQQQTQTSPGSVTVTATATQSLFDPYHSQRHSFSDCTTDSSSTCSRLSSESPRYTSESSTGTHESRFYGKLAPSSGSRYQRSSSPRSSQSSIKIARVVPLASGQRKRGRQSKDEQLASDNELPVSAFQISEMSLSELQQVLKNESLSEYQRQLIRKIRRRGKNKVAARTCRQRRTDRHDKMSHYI

[6] = fluconazole-exposed Candida albicans growth modulators – fluorescence, retest, confirmation (AID 2467); type: functional, cell-based
[7] = NIH-3T3 fibroblast cytotoxicity, dose response, cytotoxicity control, cell-based, fluorescence, Alamar Blue, secondary assay (AID 2327); type: functional;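 further: NIH-3T3 mouse fibroblasts cultured with fluconazole at 8 µg/mL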
[8] = biological target: T4, Dual specificity protein phosphatase 6 (Rattus norvegicus, UniProt Q64346); type: functional
T4 sequence (Q64346 whole entry): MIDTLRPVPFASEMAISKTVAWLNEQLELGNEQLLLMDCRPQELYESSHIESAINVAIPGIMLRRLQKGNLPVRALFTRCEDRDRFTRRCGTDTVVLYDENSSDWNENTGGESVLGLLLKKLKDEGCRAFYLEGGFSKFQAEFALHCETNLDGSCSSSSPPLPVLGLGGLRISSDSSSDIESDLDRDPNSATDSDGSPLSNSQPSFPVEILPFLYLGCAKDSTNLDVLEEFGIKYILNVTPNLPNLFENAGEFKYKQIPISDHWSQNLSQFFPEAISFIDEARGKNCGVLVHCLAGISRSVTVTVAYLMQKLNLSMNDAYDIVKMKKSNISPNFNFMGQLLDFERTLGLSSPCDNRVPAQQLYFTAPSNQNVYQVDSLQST

[9] = biological target: T4, Dual specificity protein phosphatase 6
[10] = biological target: Glyceraldehyde-3-phosphate dehydrogenase (Homo sapiens, UniProt P04406)
[11] = biological target: T5, Tyrosine-protein phosphatase non-receptor type 7 (Homo sapiens, UniProt P35236); type: functional
T5 sequence (P35236 whole entry): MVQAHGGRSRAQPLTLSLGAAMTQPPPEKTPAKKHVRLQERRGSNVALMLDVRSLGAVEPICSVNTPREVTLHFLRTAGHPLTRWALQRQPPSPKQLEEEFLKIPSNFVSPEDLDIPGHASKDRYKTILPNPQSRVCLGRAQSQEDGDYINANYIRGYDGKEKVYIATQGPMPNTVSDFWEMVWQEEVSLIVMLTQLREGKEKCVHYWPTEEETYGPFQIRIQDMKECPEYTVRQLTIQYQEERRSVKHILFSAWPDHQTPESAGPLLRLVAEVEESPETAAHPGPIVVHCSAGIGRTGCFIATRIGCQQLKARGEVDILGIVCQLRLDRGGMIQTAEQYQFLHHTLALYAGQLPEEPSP

[12] = biological target: T6, Heat shock factor protein 1 (Mus musculus, UniProt P38532); test: enhancement of HSF1-driven luciferase signal – cell-based, NIH3T3, luminescence, dose retest, confirmation (AID 435004); type: functional;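 further: stress induced by proteasome inhibitor MG132 added 30 min after compound; luciferase reporter driven by HSF1 response element in NIH3T3 cells; actives raise luminescence as potentiators of the MG132 stress response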
T6 sequence (P38532 whole entry): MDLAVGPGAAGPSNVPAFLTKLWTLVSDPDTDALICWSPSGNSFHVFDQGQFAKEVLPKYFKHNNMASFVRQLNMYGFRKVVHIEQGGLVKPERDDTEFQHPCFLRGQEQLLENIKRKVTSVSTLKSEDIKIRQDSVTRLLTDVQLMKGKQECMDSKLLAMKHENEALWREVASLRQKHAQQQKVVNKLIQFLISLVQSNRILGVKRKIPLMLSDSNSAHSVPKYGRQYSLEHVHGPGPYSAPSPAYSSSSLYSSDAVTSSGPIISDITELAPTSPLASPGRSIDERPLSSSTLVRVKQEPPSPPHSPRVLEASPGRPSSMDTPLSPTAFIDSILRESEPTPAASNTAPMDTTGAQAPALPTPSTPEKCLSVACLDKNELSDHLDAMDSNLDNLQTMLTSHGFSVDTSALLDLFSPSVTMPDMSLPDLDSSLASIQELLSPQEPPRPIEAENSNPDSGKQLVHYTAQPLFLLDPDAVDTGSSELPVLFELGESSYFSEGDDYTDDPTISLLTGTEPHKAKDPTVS

[13] = biological target: T5, Tyrosine-protein phosphatase non-receptor type 7; test: redox-active compounds inhibiting HePTP phosphatase – biochemical, fluorescence, mechanism study (AID 2068); type: functional
[14] = biological target: T7, Alkaline phosphatase, tissue-nonspecific isozyme (Homo sapiens, UniProt P05186); test: potency against alkaline phosphatase TNAP – biochemical, luminescent, dose response, SAR follow-up (AID 1056)
T7 sequence (P05186 whole entry): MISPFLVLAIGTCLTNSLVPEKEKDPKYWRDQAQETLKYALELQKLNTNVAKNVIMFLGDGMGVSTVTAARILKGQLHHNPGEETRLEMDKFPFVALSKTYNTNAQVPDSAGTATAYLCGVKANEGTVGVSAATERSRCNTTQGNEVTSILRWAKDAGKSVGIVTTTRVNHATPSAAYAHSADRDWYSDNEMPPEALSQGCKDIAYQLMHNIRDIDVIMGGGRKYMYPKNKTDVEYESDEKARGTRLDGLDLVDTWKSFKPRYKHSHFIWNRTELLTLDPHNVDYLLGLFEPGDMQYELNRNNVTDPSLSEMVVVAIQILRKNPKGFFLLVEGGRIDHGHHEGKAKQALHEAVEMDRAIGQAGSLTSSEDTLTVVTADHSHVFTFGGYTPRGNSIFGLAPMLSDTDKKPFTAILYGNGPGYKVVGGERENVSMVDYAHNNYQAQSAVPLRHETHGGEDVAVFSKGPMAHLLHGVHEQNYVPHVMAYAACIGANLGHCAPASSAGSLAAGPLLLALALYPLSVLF

[15] = biological target: Alkaline phosphatase, placental type (Homo sapiens, UniProt P05187); test: human placental alkaline phosphatase inhibition – biochemical, luminescence, confirmation (AID 1512); type: functional
Alkaline phosphatase, placental type, sequence (P05187 whole entry): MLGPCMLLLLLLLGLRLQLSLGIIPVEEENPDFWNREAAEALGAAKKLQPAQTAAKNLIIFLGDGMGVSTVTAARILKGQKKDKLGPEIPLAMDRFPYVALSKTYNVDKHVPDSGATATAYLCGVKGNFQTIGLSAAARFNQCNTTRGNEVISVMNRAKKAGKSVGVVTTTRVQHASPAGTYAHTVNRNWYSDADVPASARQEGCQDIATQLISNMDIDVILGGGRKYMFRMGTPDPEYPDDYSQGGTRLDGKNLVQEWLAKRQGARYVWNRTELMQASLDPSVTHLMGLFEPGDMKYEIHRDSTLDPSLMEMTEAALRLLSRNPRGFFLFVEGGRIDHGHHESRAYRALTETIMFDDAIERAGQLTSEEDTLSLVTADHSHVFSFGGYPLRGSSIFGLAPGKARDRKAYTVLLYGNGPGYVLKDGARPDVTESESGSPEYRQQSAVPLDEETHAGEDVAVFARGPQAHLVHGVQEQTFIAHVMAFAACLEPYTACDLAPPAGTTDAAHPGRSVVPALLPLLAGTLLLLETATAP

[16] = biological target: Voltage-gated N-type calcium channel alpha-1B subunit/Amyloid beta A4 precursor protein-binding family A member 1 (Homo sapiens, UniProt Q00975+Q02410); test: disruptors of Mint-PDZ/N-type channel peptide interaction – biochemical, HTRF, set 2, SAR follow-up (AID 434980); type: functional
Voltage-gated N-type calcium channel alpha-1B subunit/Amyloid beta A4 precursor protein-binding family A member 1, sequence (Q00975 whole entry): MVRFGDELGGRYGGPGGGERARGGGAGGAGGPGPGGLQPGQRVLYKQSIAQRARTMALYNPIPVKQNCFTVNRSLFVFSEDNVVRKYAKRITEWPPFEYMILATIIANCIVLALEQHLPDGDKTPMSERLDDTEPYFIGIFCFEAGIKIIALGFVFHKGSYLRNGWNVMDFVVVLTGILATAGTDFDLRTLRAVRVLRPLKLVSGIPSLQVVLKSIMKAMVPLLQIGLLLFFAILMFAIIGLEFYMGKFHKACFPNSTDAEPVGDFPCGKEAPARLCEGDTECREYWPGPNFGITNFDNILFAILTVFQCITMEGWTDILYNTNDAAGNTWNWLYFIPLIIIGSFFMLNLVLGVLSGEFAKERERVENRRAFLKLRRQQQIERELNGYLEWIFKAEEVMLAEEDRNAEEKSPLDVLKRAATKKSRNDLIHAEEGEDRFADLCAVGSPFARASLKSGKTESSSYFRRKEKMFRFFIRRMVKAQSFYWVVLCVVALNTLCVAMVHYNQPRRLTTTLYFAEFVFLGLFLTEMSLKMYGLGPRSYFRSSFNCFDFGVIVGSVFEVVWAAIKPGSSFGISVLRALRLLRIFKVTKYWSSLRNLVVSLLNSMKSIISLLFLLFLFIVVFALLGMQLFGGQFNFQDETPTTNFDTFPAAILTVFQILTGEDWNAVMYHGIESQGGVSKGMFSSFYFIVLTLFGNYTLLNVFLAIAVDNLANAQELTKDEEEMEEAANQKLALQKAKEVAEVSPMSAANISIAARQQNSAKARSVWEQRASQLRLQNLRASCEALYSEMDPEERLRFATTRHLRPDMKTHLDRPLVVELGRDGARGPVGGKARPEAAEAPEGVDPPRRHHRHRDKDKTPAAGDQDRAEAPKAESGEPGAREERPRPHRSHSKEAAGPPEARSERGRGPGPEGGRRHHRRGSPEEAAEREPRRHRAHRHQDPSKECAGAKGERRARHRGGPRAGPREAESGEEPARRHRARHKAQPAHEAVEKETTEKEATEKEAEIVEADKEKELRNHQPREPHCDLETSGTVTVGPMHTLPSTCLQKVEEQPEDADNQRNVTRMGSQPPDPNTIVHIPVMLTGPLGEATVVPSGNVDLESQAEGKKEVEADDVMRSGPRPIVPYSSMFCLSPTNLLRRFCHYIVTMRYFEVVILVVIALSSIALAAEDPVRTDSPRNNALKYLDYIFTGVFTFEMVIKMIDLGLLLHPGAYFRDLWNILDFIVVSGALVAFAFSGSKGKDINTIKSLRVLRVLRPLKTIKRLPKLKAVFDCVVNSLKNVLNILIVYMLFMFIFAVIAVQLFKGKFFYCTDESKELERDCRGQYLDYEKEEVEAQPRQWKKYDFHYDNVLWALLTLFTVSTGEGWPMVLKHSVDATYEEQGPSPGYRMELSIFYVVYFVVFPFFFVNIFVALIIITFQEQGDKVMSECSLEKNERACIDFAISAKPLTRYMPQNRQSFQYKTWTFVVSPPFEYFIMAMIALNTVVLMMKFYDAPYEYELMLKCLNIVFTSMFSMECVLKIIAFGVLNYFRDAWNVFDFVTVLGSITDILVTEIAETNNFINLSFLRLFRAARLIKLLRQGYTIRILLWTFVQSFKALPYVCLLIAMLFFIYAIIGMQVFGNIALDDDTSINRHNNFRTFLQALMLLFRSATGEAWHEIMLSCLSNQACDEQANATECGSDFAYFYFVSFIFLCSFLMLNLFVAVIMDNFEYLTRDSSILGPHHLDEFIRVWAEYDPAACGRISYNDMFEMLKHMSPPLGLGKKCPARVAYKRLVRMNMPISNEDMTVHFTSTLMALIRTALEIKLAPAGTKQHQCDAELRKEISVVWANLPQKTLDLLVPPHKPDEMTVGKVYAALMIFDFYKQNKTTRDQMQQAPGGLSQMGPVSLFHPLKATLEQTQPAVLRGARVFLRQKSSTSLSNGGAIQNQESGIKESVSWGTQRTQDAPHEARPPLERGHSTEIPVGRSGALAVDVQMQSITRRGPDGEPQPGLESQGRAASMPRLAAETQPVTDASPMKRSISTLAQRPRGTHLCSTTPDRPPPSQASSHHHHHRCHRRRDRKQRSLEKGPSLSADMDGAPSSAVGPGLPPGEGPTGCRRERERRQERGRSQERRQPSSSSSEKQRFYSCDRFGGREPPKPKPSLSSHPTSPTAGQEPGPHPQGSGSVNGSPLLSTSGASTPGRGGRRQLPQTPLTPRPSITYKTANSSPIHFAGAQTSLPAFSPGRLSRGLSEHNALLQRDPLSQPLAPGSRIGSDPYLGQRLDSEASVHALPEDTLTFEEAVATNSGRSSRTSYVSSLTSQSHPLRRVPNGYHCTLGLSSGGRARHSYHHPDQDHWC
Voltage-gated N-type calcium channel alpha-1B subunit/Amyloid beta A4 precursor protein-binding family A member 1, sequence (Q02410 whole entry): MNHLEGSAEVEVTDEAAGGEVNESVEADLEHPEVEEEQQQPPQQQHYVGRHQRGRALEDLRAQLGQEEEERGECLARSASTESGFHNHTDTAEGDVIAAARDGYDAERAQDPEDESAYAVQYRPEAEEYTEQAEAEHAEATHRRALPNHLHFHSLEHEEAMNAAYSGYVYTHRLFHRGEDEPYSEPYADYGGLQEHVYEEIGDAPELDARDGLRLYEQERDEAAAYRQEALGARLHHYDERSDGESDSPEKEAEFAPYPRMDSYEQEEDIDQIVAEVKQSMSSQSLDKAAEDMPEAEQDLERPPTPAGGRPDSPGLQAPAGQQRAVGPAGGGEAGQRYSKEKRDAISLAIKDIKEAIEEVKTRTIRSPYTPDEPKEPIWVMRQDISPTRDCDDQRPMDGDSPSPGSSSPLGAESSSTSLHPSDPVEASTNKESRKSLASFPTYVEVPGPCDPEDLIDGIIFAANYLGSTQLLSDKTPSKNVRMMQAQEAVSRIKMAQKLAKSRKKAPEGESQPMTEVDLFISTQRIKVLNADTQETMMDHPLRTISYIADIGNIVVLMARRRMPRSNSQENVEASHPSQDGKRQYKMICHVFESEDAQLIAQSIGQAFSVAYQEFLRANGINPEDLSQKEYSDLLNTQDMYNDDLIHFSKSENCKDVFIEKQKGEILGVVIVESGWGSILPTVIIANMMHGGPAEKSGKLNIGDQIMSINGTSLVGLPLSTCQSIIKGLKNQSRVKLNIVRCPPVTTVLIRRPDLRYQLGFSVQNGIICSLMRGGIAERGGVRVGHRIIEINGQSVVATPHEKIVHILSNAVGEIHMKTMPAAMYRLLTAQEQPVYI

[17] = Luminescent dose response cell-based high throughput screening assay for inhibitors of the Janus kinase 2 mutant JAK2V617F. [Related pubchem assays: 1446 (Primary screen.), 1521 (Confirmation assay.), 1486 (Counter screen.)]; type: functional
[18] = biological target: Eukaryotic translation initiation factor 4H (Homo sapiens, UniProt Q15056); test: eIF4H binding inhibition – biochemical, uHTS, fluorescence polarization, translation initiation inhibitor project, primary screen (AID 2012)
[19] = biological target: Polyadenylate-binding protein 1 (Homo sapiens, UniProt P11940); test: blockers of PABP interaction with poly(A) – biochemical, fluorescence polarization, […] (AID 2014)

Compound: O=C1NC(=S)N(C(=O)c2ccc(F)cc2)/C1=C/c1ccccc1
IC50 [1]: 22.4 µM (not active) | IC50 (Insulin-degrading enzyme): 22.2 µM (not active) | EC50 [2]: 54.1 µM (active) | EC50 [3]: 40.8 µM (active)

AC50 (Cytochrome P450 2D6): 20 µM (inconclusive)
Compound: O[C@@H]1CC[C@H]2Cc3ccccc3N=C21

IC50 [4]: > 43.8 µM (not active) | IC50 [5]: > 43.8 µM (not active)
Compound: N=c1c(C(=O)NC2CCCCC2)cc2c(=O)n3ccccc3nc2n1CC1CCCO1 (configuration not stated)

Compound: S=C(Nc1ccccc1)Nc1nc2ccccc2n1CCOc1ccccc1
IC50 (Protein skinhead-1): > 100 µM (inactive) | IC50 [1]: 15.9 µM (not active) | IC50 (Insulin-degrading enzyme): > 55.9 µM (not active) | EC50 [2]: 15.9 µM (active) | EC50 [6]: 2.08 µM (active) | EC50 [7]: 8.47 µM (inconclusive) | EC50 [3]: 17.4 µM (active)

IC50 [8]: > 100 µM (inactive) | IC50 [9]: > 100 µM (inactive) | IC50 [10]: > 100 µM (not active) | IC50 [11]: > 100 µM (not active)
Compound: C[C@@H](C(N)=O)n1c(=O)n(Cc2ccccc2)c(=O)n(-c2ccccc2)c1=O

EC50 [12]: > 260 µM (inactive) | IC50 [4]: 33.3 µM (not active) | IC50 [5]: > 43.8 µM (not active)
Compound: Cc1ccccc1CC1(CO)CCCN(C(=O)c2ccccc2Cl)C1 (configuration not stated)

AC50 (Cytochrome P450 2D6): 20 µM (inconclusive)
Compound: Cc1nc(/N=N\c2cc(S(=O)(=O)O)c3cc([N+](=O)[O-])cc(S(=O)(=O)O)c3c2)c(COP(=O)(O)O)c(C=O)c1O

IC50 [8]: > 100 µM (inactive) | IC50 [13]: 1.65 µM (active)
Compound: COc1cc(C(=S)NCc2ccc(F)c(C(F)(F)F)c2)ccc1O

IC50 [14]: > 100 µM (inactive) | IC50 [15]: 8.31 µM (inactive)
Compound: CCn1c(SCC(=O)c2ccc(O)c(O)c2)nnc1-c1ccc(OC)cc1

IC50 [16]: 18 µM (active)
Compound: O=C(Nc1ncc(-c2ccccc2)s1)c1cc(-c2ccco2)nc2ccccc12

Compound: COc1ccc(-n2nnnc2SCC(=O)c2ccc(O)c(O)c2)cc1
IC50 [14]: 5.93 µM (active) | IC50 [15]: 1.42 µM (active) | IC50 [17]: 1.46 µM (active)

Compound: CN1/C(=C/c2cccc[n+]2CCO)Sc2ccccc21
IC50 [18]: > 100 µM (inactive) | IC50 [19]: 1.87 µM (active)
